Assays:
Assay in all cases: Transient transfection (transactivation) assay in CV-1 cells, GAL4-PPAR chimera, luciferase reporter
Type in all cases: cell-based
PPAR gamma = biological target: T1, PPAR gamma (Homo sapiens, UniProt P37231)
T1 construct: expressed in transfected cells; host or cells: CV-1 cells
T1 sequence (P37231 238-503 limits assumed): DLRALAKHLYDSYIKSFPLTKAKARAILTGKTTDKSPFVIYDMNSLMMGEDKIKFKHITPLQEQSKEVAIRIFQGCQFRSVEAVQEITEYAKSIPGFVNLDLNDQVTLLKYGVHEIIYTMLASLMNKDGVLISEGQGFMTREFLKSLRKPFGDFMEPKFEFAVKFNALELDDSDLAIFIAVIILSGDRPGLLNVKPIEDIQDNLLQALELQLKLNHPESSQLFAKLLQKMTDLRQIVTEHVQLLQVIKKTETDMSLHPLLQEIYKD

PPAR alpha = biological target: T2, PPAR alpha (Homo sapiens, UniProt Q07869)
T2 construct: expressed in transfected cells; host or cells: CV-1 cells
T2 sequence (Q07869 239-466 limits assumed): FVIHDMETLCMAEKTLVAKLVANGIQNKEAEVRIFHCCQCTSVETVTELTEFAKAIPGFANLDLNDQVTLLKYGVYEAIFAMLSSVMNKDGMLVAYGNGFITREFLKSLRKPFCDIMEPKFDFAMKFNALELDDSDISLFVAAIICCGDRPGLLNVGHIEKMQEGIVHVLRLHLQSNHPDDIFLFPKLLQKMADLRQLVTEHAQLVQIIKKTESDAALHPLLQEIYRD
In short: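 GAL4 DNA-binding domain fused to PPAR ligand binding domain, co-transfected into CV-1 cells with a luciferase reporter carrying four or five GAL4 sites. Replated cells in phenol-red free DME with 5% delipidated calf serum were treated with compound or 1% DMSO for 20-24 hours; luciferase read for EC50 and efficacy.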

PPAR delta = biological target: T3, PPAR delta (Homo sapiens, UniProt Q03181)
T3 construct: expressed in transfected cells; host or cells: CV-1 cells
T3 sequence (Q03181 211-439 limits assumed): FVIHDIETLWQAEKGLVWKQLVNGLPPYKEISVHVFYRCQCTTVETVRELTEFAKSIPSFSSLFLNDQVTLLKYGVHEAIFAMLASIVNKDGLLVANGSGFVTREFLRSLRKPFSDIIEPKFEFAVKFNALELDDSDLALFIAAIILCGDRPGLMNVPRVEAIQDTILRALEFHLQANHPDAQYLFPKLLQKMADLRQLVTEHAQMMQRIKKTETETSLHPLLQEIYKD
Text: Compounds may be screened for functional potency in transient transfection assays in CV-1 cells or other cell types for their ability to activate the PPAR subtypes (transactivation assay). A previously established chimeric receptor system was utilized to allow comparison of the relative transcriptional activity of the receptor subtypes on the same synthetic response element and to prevent endogenous receptor activation from complicating the interpretation of results. […] The ligand binding domains for murine and human PPAR-alpha, PPAR-gamma, and PPAR-delta are each fused to the yeast transcription factor GAL4 DNA binding domain. CV-1 cells were transiently transfected with expression vectors for the respective PPAR chimera along with a reporter construct containing four or five copies of the GAL4 DNA binding site driving expression of luciferase. After 8-16 h, the cells are replated into multi-well assay plates and the media is exchanged to phenol-red free DME medium supplemented with 5% delipidated calf serum. 4 hours after replating, cells were treated with either compounds or 1% DMSO for 20-24 hours. Luciferase activity was then assayed with Britelite (Perkin Elmer) following the manufacturer's protocol and measured with either the Perkin Elmer Viewlux or Molecular Devices Acquest Xsee, for example, Kliewer, S. A., et. al. Cell 1995, 83, 813-819). Rosiglitazone is used as a positive control in the hPPAR-γ assay. Wy-14643 and GW7647 is used as a positive control in the hPPAR-α assay. GW501516 is used as the positive control in the hPPAR-δ assay.

| Compound | EC50 (PPAR gamma) [µM] | EC50 (PPAR alpha) [µM] | EC50 (PPAR delta) [µM] |
| --- | --- | --- | --- |
| Cc1ccc(S(=O)(=O)N2CCN(c3ccc(C(F)(F)F)c(F)c3)C[C@@H]2C)cc1CC(=O)O [Example 217, {5-[4-(3-Fluoro-4-trifluoromethyl-phenyl)-2-(S)-methyl-piperazine-1-sulfonyl]-2-methyl-phenyl}-acetic acid] | 5 to 100 | 5 to 100 | < 5 |
| Cc1ccc(S(=O)(=O)N2CCN(c3ccc(C(F)(F)F)cn3)[C@H](C)C2)cc1CC(=O)O (single isomer, unassigned) [Example 69] | < 5 | 5 to 100 | < 5 |
| Cc1ccc(S(=O)(=O)N2CCCN(c3ccncc3)CC2)cc1CC(=O)O [Example 13] | > 100 | > 100 | 5 to 100 |
| Cc1cc(CC(=O)O)cc(S(=O)(=O)N2CCN(c3ccc(C(F)(F)F)c(F)c3)[C@@H](C)C2)c1 [Example 219] | 5 to 100 | 5 to 100 | < 5 |
| C[C@@H]1CN(c2ccc(OC(F)(F)F)cc2)C[C@H](C)N1S(=O)(=O)c1ccc(O)c(CCC(=O)O)c1 [Example 192, 3-{5-[2,6-Dimethyl-4-(4-trifluoromethoxy-phenyl)-piperazine-1-sulfonyl]-2-hydroxy-phenyl}-propionic acid] | > 100 | > 100 | 5 to 100 |
| CCNCc1cc(CC(=O)O)cc(S(=O)(=O)N2CCN(c3ccc(C(F)(F)F)cc3)CC2)c1 [Example 88, {3-Ethylaminomethyl-5-[4-(4-trifluoromethyl-phenyl)-piperazine-1-sulfonyl]-phenyl}-acetic acid] | > 100 | > 100 | > 100 |
| CC(C)(Oc1cccc(S(=O)(=O)N2CCN(c3ccc(C(F)(F)F)cc3)CC2)c1)C(=O)O [Example 191, 2-Methyl-2-{3-[4-(4-trifluoromethyl-phenyl)-piperazine-1-sulfonyl]-phenoxy}-propionic acid] | 5 to 100 | 5 to 100 | 5 to 100 |
| Cc1ccc(S(=O)(=O)N2CCN(c3ccc(C(F)(F)F)cn3)C(C(F)(F)F)C2)cc1CC(=O)O (stereo not drawn) [Example 205, {2-Methyl-5-[3-trifluoromethyl-4-(5-trifluoromethyl-pyridin-2-yl)-piperazine-1-sulfonyl]-phenyl}-acetic acid] | 5 to 100 | 5 to 100 | < 5 |
| C[C@@H]1CN(c2ccc(C(F)(F)F)cn2)C[C@H](C)N1S(=O)(=O)c1ccc(O)c(CCC(=O)O)c1 [Example 193, 3-{5-[2,6-Dimethyl-4-(5-trifluoromethyl-pyridin-2-yl)-piperazine-1-sulfonyl]-2-hydroxy-phenyl}-propionic acid] | > 100 | > 100 | 5 to 100 |
| Cc1ccc(S(=O)(=O)N2[C@H](C)CN(c3nc4ccccc4o3)C[C@@H]2C)cc1CC(=O)O [Example 24, [5-(4-Benzooxazol-2-yl-2,6-dimethyl-piperazine-1-sulfonyl)-2-methyl-phenyl]-acetic acid] | > 100 | > 100 | 5 to 100 |
| Cc1cccc(N2CCN(S(=O)(=O)c3cccc(CC(=O)O)c3)CC2C)c1 (stereo not drawn) [Example 118, [3-(3-methyl-4-m-tolyl-piperazine-1-sulfonyl)-phenyl]-acetic acid] | 5 to 100 | > 100 | 5 to 100 |
| Cc1ccc(S(=O)(=O)N2CCCN(c3nc4ccccc4s3)CC2)cc1CC(=O)O [Example 27, [5-(4-Benzothiazol-2-yl-[1,4]diazepane-1-sulfonyl)-2-methyl-phenyl]-acetic acid] | 5 to 100 | > 100 | 5 to 100 |
| Cc1cc(CC(=O)O)cc(S(=O)(=O)N2CCN(c3ccccc3)CC2)c1 [Example 174, [3-Methyl-5-(4-phenyl-piperazine-1-sulfonyl)-phenyl]-acetic acid] | > 100 | > 100 | > 100 |
